Patent US20230085307A1, “PYRIDAZINONE COMPOUND AND HERBICIDE” (NISSAN CHEMICAL CORPORATION, priority 2019, published 2023)

The compounds below were run on rice flat sedge (assay: Test Example 3: herbicidal effect by foliage application, Wagner pot (Table 18, symbol E)). Conditions: 320 g/ha.
Assay type: in vivo, rice flat sedge (Cyperus iria)
Procedure, shortened: (§1)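 Plants were sown in alluvial soil held under 0.1–0.5 cm standing water and grown 14 days in a greenhouse at 25–30 °C. An emulsifiable formulation, water-diluted to the set dose, was then sprayed onto the foliage, and effects were scored three weeks later using previously defined criteria.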

| Compound | herbicidal effect on E (rice flat sedge), rating 0-5 |
| --- | --- |
| Cc1nn(C)c(=O)c(-c2c(-c3ccc4c(c3)OCCO4)sc3ccccc23)c1OC(=O)SC(C)(C)C [1-092] | 5 (Herbicidal rate of 90% or more (almost completely withered)) |

These compounds were tested on blackgrass (assay: Test Example 5: herbicidal effect by foliage application, plastic box (Table 20, symbol J)). Conditions: foliage application, AAH 320 g/ha, three weeks after application.
Assay type: in vivo, blackgrass (Alopecurus myosuroides)
Procedure, shortened: (§2)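 Sow seeds spot-wise in sterilized diluvial soil; cover with ~1.5 cm soil. Grow 14 days in greenhouse, 25° C. to 30° C. Spray foliage with emulsion diluted to predetermined amount. Rate effect after 3 weeks.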

| Compound | J: blackgrass, herbicidal effect |
| --- | --- |
| Cc1nn(C)c(=O)c(-c2c(-c3ccc4c(c3)OCCO4)sc3ccccc23)c1OC(=O)SC(C)(C)C [1-092] | 0 (Herbicidal rate of 5% or less (almost no effect)) |

The compounds below were run on redroot pigweed (assay: Test Example 4: herbicidal effect by soil treatment (Table 19, symbol N)). Conditions: amount of applied herbicide 320 g/ha.
Assay type: in vivo, redroot pigweed (Amaranthus retroflexus)
Procedure, shortened: (§3)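 Applied as a water-diluted emulsion, the compound was sprayed onto soil covering newly sown seeds. Evaluation came three weeks after application, in a greenhouse held at 25° C. to 30° C.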

| Compound | herbicidal effect rating, N: redroot pigweed |
| --- | --- |
| Cc1nn(C)c(=O)c(-c2c(-c3ccc4c(c3)OCCO4)sc3ccccc23)c1OC(=O)SC(C)(C)C [1-092] | 0 (Herbicidal rate of 5% or less (almost no effect)) |

These compounds were tested on Japanese bulrush (assay: Test Example 1: herbicidal activity, application before weed generation under submerged conditions (Table 16, symbol B)). Conditions: 320 g/ha applied herbicide.
Assay type: in vivo, Japanese bulrush (Schoenoplectus juncoides)
Procedure, shortened: (§4)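 Alluvial soil was flooded to 4 cm depth, weed seeds were sown mixed and 2.5-leaf rice seedlings were transplanted. On sowing day, the compound's emulsion, diluted in water to a set dose, was applied to the water surface. Plants grew at 25–30 °C and were scored 0–5 after three weeks.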

| Compound | Herbicidal effect on B: Japanese bulrush (grade 0-5) |
| --- | --- |
| Cc1nn(C)c(=O)c(-c2c(-c3ccc4c(c3)OCCO4)sc3ccccc23)c1OC(=O)SC(C)(C)C [1-092] | 3 (Herbicidal rate of 40% or more and less than 70%) |

These compounds were tested on windgrass (assay: Test Example 4: herbicidal effect by soil treatment (Table 19, symbol L)). Conditions: amount of applied herbicide 320 g/ha.
Assay type: in vivo, windgrass (Apera spica-venti)
Procedure, shortened: as §3

| Compound | herbicidal effect rating, L: windgrass |
| --- | --- |
| Cc1nn(C)c(=O)c(-c2c(-c3ccc4c(c3)OCCO4)sc3ccccc23)c1OC(=O)SC(C)(C)C [1-092] | 0 (Herbicidal rate of 5% or less (almost no effect)) |

Each compound was assayed on southern crabgrass (assay: Test Example 5: herbicidal effect by foliage application, plastic box (Table 20, symbol F)). Conditions: foliage application, AAH 320 g/ha, three weeks after application.
Assay type: in vivo, southern crabgrass (Digitaria ciliaris)
Procedure, shortened: as §2

| Compound | F: southern crabgrass, herbicidal effect |
| --- | --- |
| Cc1nn(C)c(=O)c(-c2c(-c3ccc4c(c3)OCCO4)sc3ccccc23)c1OC(=O)SC(C)(C)C [1-092] | 3 (Herbicidal rate of 40% or more and less than 70%) |

Each compound was assayed on barnyard grass (assay: Test Example 3: herbicidal effect by foliage application, Wagner pot (Table 18, symbol H)). Conditions: 320 g/ha.
Assay type: in vivo, barnyard grass (Echinochloa crus-galli)
Procedure, shortened: as §1

| Compound | herbicidal effect on H (barnyard grass), rating 0-5 |
| --- | --- |
| Cc1nn(C)c(=O)c(-c2c(-c3ccc4c(c3)OCCO4)sc3ccccc23)c1OC(=O)SC(C)(C)C [1-092] | 4 (Herbicidal rate of 70% or more and less than 90%) |

What follows are compounds tested on false cleavers (assay: Test Example 4: herbicidal effect by soil treatment (Table 19, symbol Q)). Conditions: amount of applied herbicide 320 g/ha.
Assay type: in vivo, false cleavers (Galium spurium)
Procedure, shortened: as §3

| Compound | herbicidal effect rating, Q: false cleavers |
| --- | --- |
| Cc1nn(C)c(=O)c(-c2c(-c3ccc4c(c3)OCCO4)sc3ccccc23)c1OC(=O)SC(C)(C)C [1-092] | 0 (Herbicidal rate of 5% or less (almost no effect)) |

The compounds below were run on Chinese sprangletop (assay: Test Example 3: herbicidal effect by foliage application, Wagner pot (Table 18, symbol D)). Conditions: 320 g/ha.
Assay type: in vivo, chinese sprangletop (Leptochloa chinensis)
Procedure, shortened: as §1

| Compound | herbicidal effect on D (Chinese sprangletop), rating 0-5 |
| --- | --- |
| Cc1nn(C)c(=O)c(-c2c(-c3ccc4c(c3)OCCO4)sc3ccccc23)c1OC(=O)SC(C)(C)C [1-092] | 1 (Herbicidal rate of 5% or more and less than 20%) |

What follows are compounds tested on late watergrass (assay: Test Example 1: herbicidal activity, application before weed generation under submerged conditions (Table 16, symbol A)). Conditions: 320 g/ha applied herbicide.
Assay type: in vivo, late watergrass (Echinochloa oryzicola)
Procedure, shortened: as §4

| Compound | Herbicidal effect on A: late watergrass (grade 0-5) |
| --- | --- |
| Cc1nn(C)c(=O)c(-c2c(-c3ccc4c(c3)OCCO4)sc3ccccc23)c1OC(=O)SC(C)(C)C [1-092] | 5 (Herbicidal rate of 90% or more (almost completely withered)) |

What follows are compounds tested on Italian ryegrass (assay: Test Example 4: herbicidal effect by soil treatment (Table 19, symbol K)). Conditions: amount of applied herbicide 320 g/ha.
Assay type: in vivo, Italian ryegrass (Lolium multiflorum)
Procedure, shortened: as §3

| Compound | herbicidal effect rating, K: Italian ryegrass |
| --- | --- |
| Cc1nn(C)c(=O)c(-c2c(-c3ccc4c(c3)OCCO4)sc3ccccc23)c1OC(=O)SC(C)(C)C [1-092] | 0 (Herbicidal rate of 5% or less (almost no effect)) |

The compounds below were run on barnyard grass (assay: Test Example 5: herbicidal effect by foliage application, plastic box (Table 20, symbol H)). Conditions: foliage application, AAH 320 g/ha, three weeks after application.
Assay type: in vivo, barnyard grass (Echinochloa crus-galli)
Procedure, shortened: as §2

| Compound | H: barnyard grass, herbicidal effect |
| --- | --- |
| Cc1nn(C)c(=O)c(-c2c(-c3ccc4c(c3)OCCO4)sc3ccccc23)c1OC(=O)SC(C)(C)C [1-092] | 3 (Herbicidal rate of 40% or more and less than 70%) |

What follows are compounds tested on green foxtail (assay: Test Example 5: herbicidal effect by foliage application, plastic box (Table 20, symbol G)). Conditions: foliage application, AAH 320 g/ha, three weeks after application.
Assay type: in vivo, green foxtail (Setaria viridis)
Procedure, shortened: as §2

| Compound | G: green foxtail, herbicidal effect |
| --- | --- |
| Cc1nn(C)c(=O)c(-c2c(-c3ccc4c(c3)OCCO4)sc3ccccc23)c1OC(=O)SC(C)(C)C [1-092] | 3 (Herbicidal rate of 40% or more and less than 70%) |

These compounds were tested on oval-leafed pondweed (assay: Test Example 2: herbicidal activity, application during weed generation under submerged conditions (Table 17, symbol C)). Conditions: AAH 320 g/ha; application during weed generation, submerged conditions.
Assay type: in vivo, oval-leafed pondweed (Monochoria vaginalis)
Procedure, shortened: (§5)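 Steps: fill Wagner pots with alluvial soil; add water to give 4 cm depth; sow the species mixed; grow under glass at 25–30° C.; at 1–2 leaves apply water-diluted emulsion formulation to the water surface at a fixed herbicide amount; score after 3 weeks.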

| Compound | herbicidal effect rating, C: oval-leafed pondweed |
| --- | --- |
| Cc1nn(C)c(=O)c(-c2c(-c3ccc4c(c3)OCCO4)sc3ccccc23)c1OC(=O)SC(C)(C)C [1-092] | 0 (Herbicidal rate of 5% or less (almost no effect)) |

The compounds below were run on late watergrass (assay: Test Example 2: herbicidal activity, application during weed generation under submerged conditions (Table 17, symbol A)). Conditions: AAH 320 g/ha; application during weed generation, submerged conditions.
Assay type: in vivo, late watergrass (Echinochloa oryzicola)
Procedure, shortened: as §5

| Compound | herbicidal effect rating, A: late watergrass |
| --- | --- |
| Cc1nn(C)c(=O)c(-c2c(-c3ccc4c(c3)OCCO4)sc3ccccc23)c1OC(=O)SC(C)(C)C [1-092] | 3 (Herbicidal rate of 40% or more and less than 70%) |

These compounds were tested on wild oat (assay: Test Example 5: herbicidal effect by foliage application, plastic box (Table 20, symbol I)). Conditions: foliage application, AAH 320 g/ha, three weeks after application.
Assay type: in vivo, wild oat (Avena fatua)
Procedure, shortened: as §2

| Compound | I: wild oat, herbicidal effect |
| --- | --- |
| Cc1nn(C)c(=O)c(-c2c(-c3ccc4c(c3)OCCO4)sc3ccccc23)c1OC(=O)SC(C)(C)C [1-092] | 0 (Herbicidal rate of 5% or less (almost no effect)) |

The compounds below were run on persian speedwell (assay: Test Example 5: herbicidal effect by foliage application, plastic box (Table 20, symbol R)). Conditions: foliage application, AAH 320 g/ha, three weeks after application.
Assay type: in vivo, Persian speedwell (Veronica persica)
Procedure, shortened: as §2

| Compound | R: persian speedwell, herbicidal effect |
| --- | --- |
| Cc1nn(C)c(=O)c(-c2c(-c3ccc4c(c3)OCCO4)sc3ccccc23)c1OC(=O)SC(C)(C)C [1-092] | 5 (Herbicidal rate of 90% or more (almost completely withered)) |
